{"source": "patent US5591758A", "about": "“Organic nitrates, processes for their preparation and their use in the treatment of cardiovascular diseases” (Laboratoires Hoechst, SA, priority 1991, dated 1997)", "tested_on": "anaesthetised dogs", "assay": "Tachyphylaxis model on anaesthetised dogs (repeated i.d. administration)", "format": "in vivo, dogs (labrador/harrier cross)", "design": "Δdp/dt average / ΔBPs / ΔBPd / ΔLVEDP / ΔHR / ΔBPs average / ΔBPd average / ΔLVEDP average / ΔHR average: unit not given here", "conditions": "0.75 mg/kg i.d.; for Δdp/dt / ΔBPd / ΔBPs / ΔHR / ΔLVEDP: single dog", "experimental": "Comparison with isosorbide mononitrate (IS-5-MN).\nThe product (46) is tested in a tachyphylaxis model on anaesthetised dogs. IS-5-MN is used as reference substance.\n8 dogs of each sex, weighing between 16 and 24 kg, are used. These dogs are the progeny of a labrador/harrier cross. Anaesthesia is induced with the aid of sodium pentobarbital (45 mg/kg i.v.) and maintained by i.v. perfusion (flow rate: 8 mg/kg/h). The animals are ventilated, with the aid of a \"Bird Mark 7\" respirator, using ambient air, and catheterised. […] The arterial blood gases are measured at regular intervals.\nIS-5-MN is also dissolved in water and given i.d. in a dosage of 5 mg/kg in a volume of 10 ml/animal.\nThree hours (in the case of IS-5-MN) or four hours (in the case of (46)) after the first administration, the compounds are readministered in the same dosage and by the same route. The haemodynamic parameter chosen for the study of the tachyphylaxis is the systolic blood pressure (BPs), insofar as this parameter is very sensitive to the administration of the compounds.", "key": {"[1]": {"conditions": "n = 4, 2nd administration, 120 min"}, "[2]": {"conditions": "1st administration, 5 min, monohydrochloride, 0.75 mg/kg"}, "[3]": {"conditions": "1st administration, 10 min, monohydrochloride, 0.75 mg/kg"}, "[4]": {"conditions": "1st administration, 15 min, monohydrochloride, 0.75 mg/kg"}, "[5]": {"conditions": "1st administration, 30 min, monohydrochloride, 0.75 mg/kg"}, "[6]": {"conditions": "1st administration, 60 min, monohydrochloride, 0.75 mg/kg"}, "[7]": {"conditions": "1st administration, 120 min, monohydrochloride, 0.75 mg/kg"}, "[8]": {"conditions": "1st administration, 180 min, monohydrochloride, 0.75 mg/kg"}, "[9]": {"conditions": "1st administration, 240 min, monohydrochloride, 0.75 mg/kg"}, "[10]": {"conditions": "2nd administration, 5 min, monohydrochloride, 0.75 mg/kg"}, "[11]": {"conditions": "2nd administration, 10 min, monohydrochloride, 0.75 mg/kg"}, "[12]": {"conditions": "2nd administration, 15 min, monohydrochloride, 0.75 mg/kg"}, "[13]": {"conditions": "2nd administration, 30 min, monohydrochloride, 0.75 mg/kg"}, "[14]": {"conditions": "2nd administration, 60 min, monohydrochloride, 0.75 mg/kg"}, "[15]": {"conditions": "2nd administration, 120 min, monohydrochloride, 0.75 mg/kg"}}, "note": "Several values for one entry are separate records, joined by “and”; a condition that tells them apart may be missing. Equal entries are not always repeated. Structures can show the parent of a compound that is named as a salt.", "data": [{"smiles": "O=C(CNC(=O)[C@@H]1CSCN1)N[C@H]1CO[C@H]2[C@@H]1OC[C@@H]2O[N+](=O)[O-]", "note": "[Compound 46, 5-[[2-[[(4-L-Thiazolidinyl)carbonyl]amino]-1oxoethyl]amino]-5-deoxy-2-O-nitro-1,4:3,6-dianhydro-L-iditol monohydrochloride]", "values": [{"measurement": "ΔHR average", "setting": "[1]", "value": -2}, {"measurement": "ΔLVEDP average", "setting": "[1]", "value": -2}, {"measurement": "Δdp/dt average", "setting": "[1]", "value": -275}, {"measurement": "Δdp/dt", "setting": "1st administration, 5 min", "value": 0}, {"measurement": "ΔBPd", "setting": "[2]", "value": "-5 and 0"}, {"measurement": "ΔBPs", "setting": "[2]", "value": "-5 and -10 and 0"}, {"measurement": "ΔHR", "setting": "[2]", "value": "0 and -5"}, {"measurement": "ΔLVEDP", "setting": "[2]", "value": "0 and -1"}, {"measurement": "Δdp/dt", "setting": "1st administration, 10 min", "value": -100}, {"measurement": "ΔBPd", "setting": "[3]", "value": "-10 and -15"}, {"measurement": "ΔBPs", "setting": "[3]", "value": "-15 and -20"}, {"measurement": "ΔHR", "setting": "[3]", "value": "0 and -5"}, {"measurement": "ΔLVEDP", "setting": "[3]", "value": "-2 and 0 and -3"}, {"measurement": "ΔBPd", "setting": "[4]", "value": "-15 and -20"}, {"measurement": "ΔBPs", "setting": "[4]", "value": "-25 and -20 and -35"}, {"measurement": "ΔHR", "setting": "[4]", "value": "0 and -5"}, {"measurement": "ΔLVEDP", "setting": "[4]", "value": "-3 and -2 and 1"}, {"measurement": "Δdp/dt", "setting": "[4]", "value": "-100 and -200"}, {"measurement": "ΔBPd", "setting": "[5]", "value": "-20 and -15 and -25"}, {"measurement": "ΔBPs", "setting": "[5]", "value": "-30 and -20 and -40"}, {"measurement": "ΔHR", "setting": "[5]", "value": "-5 and 0"}, {"measurement": "ΔLVEDP", "setting": "[5]", "value": "-4 and -2 and 1"}, {"measurement": "Δdp/dt", "setting": "[5]", "value": "-100 and -200"}, {"measurement": "ΔBPd", "setting": "[6]", "value": "-20 and -25 and -10"}, {"measurement": "ΔBPs", "setting": "[6]", "value": "-30 and -35 and -15 and -50"}, {"measurement": "ΔHR", "setting": "[6]", "value": "-10 and -5"}, {"measurement": "ΔLVEDP", "setting": "[6]", "value": "-3 and -2 and -4"}, {"measurement": "Δdp/dt", "setting": "[6]", "value": "-200 and -300 and 0"}, {"measurement": "ΔBPd", "setting": "[7]", "value": "-20 and -25 and -10"}, {"measurement": "ΔBPs", "setting": "[7]", "value": "-30 and -35 and -15 and -45"}, {"measurement": "ΔHR", "setting": "[7]", "value": "-15 and 5"}, {"measurement": "ΔLVEDP", "setting": "[7]", "value": "-2 and -6 and -4"}, {"measurement": "Δdp/dt", "setting": "[7]", "value": "-200 and -300"}, {"measurement": "ΔBPd", "setting": "[8]", "value": "-20 and -5 and -15"}, {"measurement": "ΔBPs", "setting": "[8]", "value": "-25 and -30 and -10"}, {"measurement": "ΔHR", "setting": "[8]", "value": "-10 and -15 and 10"}, {"measurement": "ΔLVEDP", "setting": "[8]", "value": "-3 and -2 and -7 and -4"}, {"measurement": "Δdp/dt", "setting": "[8]", "value": "-200 and -300 and -100 and 0"}, {"measurement": "ΔBPd", "setting": "[9]", "value": "-10 and -20 and 0"}, {"measurement": "ΔBPs", "setting": "[9]", "value": "-15 and -20 and 0"}, {"measurement": "ΔHR", "setting": "[9]", "value": "-5 and -10 and 0 and 15"}, {"measurement": "ΔLVEDP", "setting": "[9]", "value": "-4 and -3 and -7"}, {"measurement": "Δdp/dt", "setting": "[9]", "value": "-100 and 0 and 300"}, {"measurement": "ΔBPd", "setting": "2nd administration, 5 min", "value": -5}, {"measurement": "ΔHR", "setting": "2nd administration, 5 min", "value": 0}, {"measurement": "ΔBPs", "setting": "[10]", "value": "-5 and -10"}, {"measurement": "ΔLVEDP", "setting": "[10]", "value": "0 and 1"}, {"measurement": "Δdp/dt", "setting": "[10]", "value": "0 and -100"}, {"measurement": "ΔHR", "setting": "2nd administration, 10 min", "value": 0}, {"measurement": "ΔLVEDP", "setting": "2nd administration, 10 min", "value": 0}, {"measurement": "ΔBPd", "setting": "[11]", "value": "-10 and -5"}, {"measurement": "ΔBPs", "setting": "[11]", "value": "-15 and -5 and -10"}, {"measurement": "Δdp/dt", "setting": "[11]", "value": "0 and -100 and -200"}, {"measurement": "ΔBPd", "setting": "[12]", "value": "-15 and -10 and -5"}, {"measurement": "ΔBPs", "setting": "[12]", "value": "-20 and -15"}, {"measurement": "ΔHR", "setting": "[12]", "value": "-5 and 0"}, {"measurement": "ΔLVEDP", "setting": "[12]", "value": "-1 and 2 and 0"}, {"measurement": "Δdp/dt", "setting": "[12]", "value": "-100 and 0 and -300"}, {"measurement": "ΔBPd", "setting": "[13]", "value": "-15 and -10 and -25"}, {"measurement": "ΔBPs", "setting": "[13]", "value": "-25 and -20 and -35"}, {"measurement": "ΔHR", "setting": "[13]", "value": "0 and -5"}, {"measurement": "ΔLVEDP", "setting": "[13]", "value": "-1 and 0 and -2"}, {"measurement": "Δdp/dt", "setting": "[13]", "value": "-100 and -600"}, {"measurement": "ΔBPd", "setting": "[14]", "value": "-15 and -10 and -35"}, {"measurement": "ΔBPs", "setting": "[14]", "value": "-30 and -20 and -50"}, {"measurement": "ΔHR", "setting": "[14]", "value": "-5 and -10 and 0"}, {"measurement": "ΔLVEDP", "setting": "[14]", "value": "-1 and -3"}, {"measurement": "Δdp/dt", "setting": "[14]", "value": "-100 and -200 and -900"}, {"measurement": "ΔBPd", "setting": "[15]", "value": "-10 and -15 and -25"}, {"measurement": "ΔBPs", "setting": "[15]", "value": "-20 and -30 and -35"}, {"measurement": "ΔHR", "setting": "[15]", "value": "0 and -15 and 5"}, {"measurement": "ΔLVEDP", "setting": "[15]", "value": "-1 and -2 and -3"}, {"measurement": "Δdp/dt", "setting": "[15]", "value": "-100 and -200 and -600"}]}]}
